{"source": "patent US20050074810A1", "about": "“Method for non-invasilvely determining the relative levels of two biological substances” (priority 2001, published 2005)", "key": {"[1]": {"details": "human volunteer, 0.3 mA/cm^2, 5.5 hours, 15 min samples, food ingested", "method": "The distance between the chambers was approximately 8 cm.\nThe anode was positioned in one of the cells, which was filled with a solution containing a 10 mM Tris buffer pH 8.5+100 mM NaCl.\nThe other (collection) chamber contained the cathode submerged in a 10 mM Tris buffer at pH 8.5.\nThe two electrodes were connected to a power supply (Phoresor II Auto, lomed, USA) and a current of 0.6 mA (0.3 mA/cm^2) was passed between them for a total of 5.5 hours.\nThe entire contents of the cathode solution were withdrawn every 15 minutes and the chamber was then refilled with fresh buffer.\nGlucose in each iontophoretic sample was analyzed by high-performance anion-exchange chromatography with pulsed amperometric detection."}, "[2]": {"details": "subdermal lactate 1.74 mM, ammonium 1.56 mM", "method": "Experiments were performed in specially-designed iontophoresis diffusion cells (Laboratory Glass Apparatus, Berkeley, Calif., USA) as represented in FIG. 7.\nThe anodal and cathodal chambers contacted the outer surface of the skin and contained the receptor (collection) media, respectively, 80 mM Tris/TrisHCl and 25 mM Tris+34 mM Mops (both buffered to pH 7.4).\nDermatomed pig-ear skin was clamped between the two halves of the iontophoresis cell and each chamber was filled with the appropriate solution.\nThe sub-dermal chamber was filled with the “donor solution which was perfused continuously at 2-3 mL/hour by means of a peristaltic pump.\nA current of 0.4 mA (0.5 mA/cm^2) was passed for a total of 5 hours between the Ag/AgCl electrodes which were inserted into the anodal and cathodal chambers.\nEvery hour, the entire anode and cathode solutions were withdrawn and the chambers were refilled with fresh buffer."}, "[3]": {"assay": "In vitro reverse iontophoretic extraction of mannitol and sodium with varied sodium level (Example 4)", "procedure": "The anode was placed in the sub-dermal, “donor” chamber, which contained a physiological pH 7.4 buffer (25 mM Tris/TrisHCl+4 mM KCl).\nBoth the concentration of the analyte of interest and the internal standard were modified during the experiment.\n(§1) To facilitate the analytical chemistry, the donor solutions were spiked with ^14C-labeled mannitol.\n(§2) The cathodal (collection) chamber, which contacted the outer surface of the skin, contained a 25 mM Tris/TrisHCl buffer at pH 7.4.\n(§3) During the first 3-hour period, the entire content of the cathode solution was withdrawn every 60 minutes and the chamber was refilled with fresh buffer.\nDuring the final 1-hour period, the donor solution was replaced with 5 mM mannitol/ 133 mM NaCl, and the cathodal chamber was then sampled every 30 minutes."}, "[4]": {"assay": "In vitro reverse iontophoretic extraction of mannitol and sodium (Example 3, second experiment)", "procedure": "In a second experiment, performed under identical conditions to the first (see FIG. 11), mannitol concentration was 5 mM for the first three hours of experiment, it was then reduced to 3 mM for a subsequent period of one hour and then increased to 10 mM for a subsequent period of one hour.\nas §3\nDuring the second 1-hour period, the 5 mM mannitol donor solution was replaced with 3 mM mannitol, and the cathodal chamber was then sampled every 30 minutes.\nDuring the third 1-hour period, the 3 mM mannitol donor solution was replaced with 10 mM mannitol, and the cathodal chamber was then sampled every 30 minutes."}, "[5]": {"details": "in vivo, 4 mA for 5 minutes, 4.5 cm^2, lithium nitrate electrolyte; cited from earlier work"}, "[6]": {"assay": "In vitro reverse iontophoretic extraction of glucose and sodium (Example 5)", "assay_type": "in vitro ADME, pig", "details": "subdermal glucose 10 mM", "procedure": "The anode was placed in the sub-dermal, “donor” chamber, which contained a physiological pH 7.4 buffer (25 mM Tris/TrisHCl+133 mM NaCl) to which the analyte glucose was added at a concentration of 10 mM.\nTo facilitate the analytical chemistry, the donor solutions were spiked with tritiated glucose.\nas §2\nThe experimental design was identical to that in FIG. 11, with the exception that glucose spiked with tritiated glucose replaced mannitol spiked with ^14C-labeled mannitol.\nDuring this period, the entire content of the cathode solution was withdrawn every 60 minutes and the chamber was refilled with fresh buffer."}, "[7]": {"assay": "In vitro reverse iontophoretic extraction of mannitol and sodium (Example 3, first experiment)", "procedure": "The anode was placed in the sub-dermal, “donor” chamber, which contained a physiological pH 7.4 buffer (25 mM Tris/TrisHCl+133 mM NaCl) to which the analyte mannitol was added.\nIn a first experiment, mannitol concentration was 5 mM for the first three hours of experiment and was then increased to 10 mM for a subsequent period of three hours.\nas §1\nThe cathodal (collection) chamber, which contacted the outer surface of the skin contained a 25 mM Tris/TrisHCl buffer at pH 7.4.\nas §3\nDuring the second 3-hour period, the 5 mM mannitol donor solution was replaced with 10 mM mannitol, and the cathodal chamber was then sampled every 30 minutes."}, "[8]": {"details": "subdermal mannitol 5 mM, 60 min"}, "[9]": {"details": "subdermal mannitol 5 mM, 120 min"}, "[10]": {"details": "subdermal mannitol 5 mM, 180 min"}, "[11]": {"details": "subdermal mannitol 10 mM, 270 min"}, "[12]": {"details": "subdermal mannitol 10 mM, 300 min"}}, "note": "Read-outs that look alike come from different tables or passages of the source."}
{"smiles": "[Na+]", "note": "[Na^+, sodium]", "values": [{"measurement": "Iontophoretically extracted flux over the experiment", "setting": "[1]", "result": "remained effectively constant"}, {"measurement": "Deduced transport number (×100)", "setting": "[2]; 3 h", "result": "67.72 ± 7.98 ×100"}, {"measurement": "Deduced transport number (×100)", "setting": "[2]; 5 h", "result": "72.07 ± 1.07 ×100"}, {"measurement": "Sodium^+ flux", "setting": "[3]; subdermal [Mannitol]/[Na^+] 5/133 mM (last hour), 330 min", "result": "11.2 ± 1.2", "unit": "μmol · h^−1 · cm^−2"}, {"measurement": "Sodium^+ flux", "setting": "[3]; subdermal [Mannitol]/[Na^+] 5/133 mM (last hour), 360 min", "result": "11.4 ± 0.3", "unit": "μmol · h^−1 · cm^−2"}, {"measurement": "Sodium^+ flux", "setting": "[3]; subdermal [Mannitol]/[Na^+] 5/133 mM, 60 min", "result": "8.4 ± 0.8", "unit": "μmol · h^−1 · cm^−2"}, {"measurement": "Sodium^+ flux", "setting": "[3]; subdermal [Mannitol]/[Na^+] 5/133 mM, 120 min", "result": "10.7 ± 0.4", "unit": "μmol · h^−1 · cm^−2"}, {"measurement": "Sodium^+ flux", "setting": "[3]; subdermal [Mannitol]/[Na^+] 5/133 mM, 180 min", "result": "11.0 ± 0.3", "unit": "μmol · h^−1 · cm^−2"}, {"measurement": "Sodium^+ flux", "setting": "[4]; subdermal mannitol 3 mM, 210 min", "result": "10.9 ± 0.7", "unit": "μmol · h^−1 · cm^−2"}, {"measurement": "Sodium^+ flux", "setting": "[4]; subdermal mannitol 3 mM, 240 min", "result": "9.7 ± 0.5", "unit": "μmol · h^−1 · cm^−2"}, {"measurement": "Sodium^+ flux", "setting": "[4]; [8]", "result": "8.8 ± 0.7", "unit": "μmol · h^−1 · cm^−2"}, {"measurement": "Sodium^+ flux", "setting": "[4]; [9]", "result": "10.2 ± 0.7", "unit": "μmol · h^−1 · cm^−2"}, {"measurement": "Sodium^+ flux", "setting": "[4]; [10]", "result": "10.4 ± 0.7", "unit": "μmol · h^−1 · cm^−2"}, {"measurement": "Sodium^+ flux", "setting": "[4]; [11]", "result": "9.4 ± 0.6", "unit": "μmol · h^−1 · cm^−2"}, {"measurement": "Sodium^+ flux", "setting": "[4]; [12]", "result": "9.3 ± 0.4", "unit": "μmol · h^−1 · cm^−2"}, {"measurement": "Concentration in the cathode chamber after current passage", "setting": "[5]", "result": "~35", "unit": "μEq/L"}, {"measurement": "Sodium^+ flux", "setting": "[6]; 60 min", "result": "8.7 ± 0.6", "unit": "μmol · h^−1 · cm^−2"}, {"measurement": "Sodium^+ flux", "setting": "[6]; 120 min", "result": "9.8 ± 0.4", "unit": "μmol · h^−1 · cm^−2"}, {"measurement": "Sodium^+ flux", "setting": "[6]; 180 min", "result": "10.1 ± 0.3", "unit": "μmol · h^−1 · cm^−2"}, {"measurement": "Sodium^+ flux", "setting": "[6]; 240 min", "result": "10.0 ± 0.3", "unit": "μmol · h^−1 · cm^−2"}, {"measurement": "Sodium^+ flux", "setting": "[6]; 300 min", "result": "10.2 ± 0.3", "unit": "μmol · h^−1 · cm^−2"}, {"measurement": "Sodium^+ flux", "setting": "[6]; 360 min", "result": "10.2 ± 0.3", "unit": "μmol · h^−1 · cm^−2"}, {"measurement": "Sodium^+ flux", "setting": "[7]; [8]", "result": "7.9 ± 0.5", "unit": "μmol · h^−1 · cm^−2"}, {"measurement": "Sodium^+ flux", "setting": "[7]; [9]", "result": "9.7 ± 0.6", "unit": "μmol · h^−1 · cm^−2"}, {"measurement": "Sodium^+ flux", "setting": "[7]; [10]", "result": "10.1 ± 0.4", "unit": "μmol · h^−1 · cm^−2"}, {"measurement": "Sodium^+ flux", "setting": "[7]; subdermal mannitol 10 mM, 210 min", "result": "10.3 ± 0.5", "unit": "μmol · h^−1 · cm^−2"}, {"measurement": "Sodium^+ flux", "setting": "[7]; subdermal mannitol 10 mM, 240 min", "result": "10.4 ± 0.6", "unit": "μmol · h^−1 · cm^−2"}, {"measurement": "Sodium^+ flux", "setting": "[7]; [11]", "result": "10.3 ± 0.4", "unit": "μmol · h^−1 · cm^−2"}, {"measurement": "Sodium^+ flux", "setting": "[7]; [12]", "result": "10.6 ± 0.3", "unit": "μmol · h^−1 · cm^−2"}, {"measurement": "Sodium^+ flux", "setting": "[7]; subdermal mannitol 10 mM, 330 min", "result": "10.7 ± 0.3", "unit": "μmol · h^−1 · cm^−2"}, {"measurement": "Sodium^+ flux", "setting": "[7]; subdermal mannitol 10 mM, 360 min", "result": "10.5 ± 0.6", "unit": "μmol · h^−1 · cm^−2"}]}
